Blank lines part the entries; values can stand above or below the molecule they belong to.
Legend:
physchem = type: physicochemical; conditions: water
Experimental: The crude product contained a mixture of folate-deferoxamine conjugates, wherein the folate is linked to DF via its α-carboxyl or γ-carboxyl group as well as unreacted folic acid. The two isomers of DF-folate were isolated and purified on a weak anion-exchange column. Briefly, the product mixture was loaded onto a 1.5 cm×15 cm […] column pre-equilibrated in 10 mM NH4 CO3 buffer (pH 7.9). The column was washed with 50 mL 10 mM NH4 HCO3 and then eluted with a 500 mL gradient of 80-180 mM NH4 HCO3 followed by 150 mL 500 mM NH4 HCO3. Three folate-containing peaks were obtained as detected by UV absorbance at 363 nm. Each peak was collected, lyophilized, and redissolved in deionized water. The purity of each component was confirmed by reverse-phase high pressure liquid chromatography (HPLC) with a 10 mm×250 mm Licrosorb RP-18 column (Altech, Deerfield, Ill.), and evaluation of the conjugates' molecular weights was determined by fast-atom bombardment mass spectroscopy (FAB-MS). The characteristic pKa values of the two DF-folate isomers were obtained by titration on a pH/ion analyzer (Corning, Corning, N.Y.). […] Since the two isoforms of DF-folate conjugate retain either a free γ-carboxyl or free α-carboxyl, they can be distinguished from each other and from unreacted folic acid by their characteristic pKa values, which were determined by titration.

[1] = biological target: T1, KB cell folate-binding protein (Homo sapiens, UniProt P15328); assay: Competitive binding assay using [^3 H]folic acid on KB cells; conditions: equimolar amount (100 pmoles each), 30 min, 4° C.
T1 construct: endogenous in cells; host or cells: KB cells
Experimental: (§1) Cell Culture. KB cells, a human nasopharyngeal epidermal carcinoma cell line that greatly overexpresses the folate binding protein, were cultured continuously as a monolayer at 37° C. in a humidified atmosphere containing 5% CO2 in folate-deficient modified Eagle's medium (FDMEM) (a folate-free modified Eagle's medium supplemented with 10% (v/v) heat-inactivated fetal calf serum as the only source of folate) containing penicillin (50 units/mL), streptomycin (50 μg/mL), and 2 mM L-glutamine. The final folate concentration in the complete FDMEM is the physiological range (~2 nM). 48 h prior to each experiment, the cells were transferred to 35 mm culture dishes at 5×10^5 cells per dish and grown to ~80% confluent.
The affinity of the DF-folate(α) and DF-folate(γ) conjugates for the KB cell folate-binding protein was evaluated in a competitive binding assay using [^3 H]folic acid as the receptor ligand. Briefly, 100 pmoles of [^3 H]folic acid and 100 pmoles of either DF-folate(α) or DF-folate(γ) dissolved in phosphate-buffered saline (PBS) were added to KB cells grown ~80% confluence in 1 mL FDMEM in 35 mm culture dishes. Following a 30 min incubation at 4° C., the cells were washed 3 times with cold PBS. Cell-associated [^3 H] folic acid was then determined by liquid scintillation counting, and the cellular protein content was evaluated by the BCA protein assay.

human KB cells tumors = type: in vivo, athymic mice; conditions: 29.6 mg tumor; ~45 hours post-injection
Experimental: To test the tumor-cell-selective uptake of metal-labeled radiopharmaceuticals in vivo, ~180 μCi of ^67 Ga-deferoxamine-folate conjugate (See FIG. 3) was administered to two tumor-bearing athymic mice. Tumors were generated in athymic mice by subcutaneous injecting human KB cells into the dorsal-lateral region of the mice according to procedures familiar to those of ordinary skill in the art. After establishment of tumors in the mice, ~180 μCi of ^67 Ga-deferoxamine-folate conjugate was administered intravenously. Approximately 45 hours post-injection, gamma images were obtained and the tissue distribution of ^67 Ga quantitated.
To test the viability of the FBP-receptor as a pathway for achieving tumor-cell-selective uptake of metal-labeled radiopharmaceuticals in vivo, ~180 μCi of ^67 Ga-deferoxamine-folate conjugate was administered intravenously to two tumor-bearing athymic mice via the femoral vein nine days after subcutaneous injection of 4×10^6 human KB cells. At approximately 45 hours post-injection, gamma images were obtained, the animals were sacrificed and dissected, and the tissue distribution of tracer was quantified by gamma counting (after storage of the weighted tissue samples for decay to a suitable ^67 Ga count rate). […] The tumor to blood ratio was 1500 and 1185 and the tumor to muscle ratio was 170 and 288 for each respective mouse.

[2] = system: Subcutaneous KB Cell Tumors
KB cells [3] = assay: Uptake of ^67 Ga-DF-folate complex by cultured KB cells; type: cell-based, human; conditions: for saturating level of cellular uptake, of the total radioactivity added: concentration dependence
Experimental: as §1
Because folate and its conjugates bind to cell surface receptors at 4° C., but are capable of endocytosis only at higher temperatures, it is possible to separately evaluate the kinetics of binding the internalization of folate by measuring the rates of folate conjugate uptake at the two temperatures. […] By the end of the 30 min incubation, binding approached to saturation with ~18% of the initial radioactivity found associated with a cell surface.
Incubation at 37° C., a temperature which permits both binding and endocytosis, yielded similar kinetic results, however, maximal uptake reached 32% of the total conjugate added. Presumably, the difference in magnitude of the two cellular uptake curves reflects the ability of the folate receptor to internalize the conjugate and then recycle to the cell surface in its unoccupied form. […] This latter result is consistent with the inability of the α-conjugate to compete with free folate for the cell surface receptor.
To verify the involvement of a cell surface folate receptor in mediating the uptake of ^67 Ga-DF-folate(γ), binding and internalization of the complex were evaluated as a function of the complex's concentration. Cellular uptake of ^67 Ga-DF-folate(γ) was concentration dependent at both 4° C. and 37° C., saturating at levels of 20% and 35% of the total radioactivity added, respectively.

[4] = system: membrane transport protein; conditions: facilitated transport by membrane transport protein; cited from earlier work
[5] = biological target: membrane-bound folate-binding-protein receptor (FBP); conditions: cited from earlier work
[6] = system: Rat pheochromocytoma (PC-12) cells; assay: Rat pheochromocytoma cell uptake of biotin conjugated proteins, fluorescent microscope; type: cell-based; conditions: 37° C., 5, 15 and 33 minutes
Experimental: Rat pheochromocytoma (PC-12) cells were obtained from America Type Culture Collection and were grown (37° C., 5% CO2 in humidified air) attached to plastic flasks for 2 to 3 weeks until confluent in a medium of 85% RMPI 1640, 10% v/v heat inactivated horse serum, and 5% fetal calf serum containing 1% streptomycin-penicillin.
Biotin and fluorescein labeled insulin was prepared.
The rat PC12 cells were grown in modified RMPI 1640 medium as a monolayer on the bottom of a culture flask. Before removing the cells, the monolayer was washed with a 20 ml portion of fresh Locke's solution. The cells were then displaced into 20 ml of the Locke's solution by gentle agitation with a stream Locke's solution. […] The tubes were allowed to incubate at 37° C. At intervals of 5, 15 and 33 minutes, 0.5 ml of each cell suspension was removed and pelleted at 10,000×g for 10 seconds. The cell pellet was washed and repelleted twice in 1 ml Locke's solution and then fixed by addition of 200 l of a 2% formalin solution in phosphate buffered saline. Thirteen microliters of the fixed cell suspension was then added to a microscope slide and viewed with the fluorescent microscope to detect internalized proteins.

[7] = system: KB cells (a human nasopharyngeal cell line); assay: Uptake of ^125 I-labeled folate-labeled protein by KB cells; type: cell-based
human HeLa cells = assay: Uptake of ^125 I-labeled folate-labeled RNase by HeLa cells; type: cell-based
[8] = 17 hours after intraperitoneal injection
[9] = system: white blood cells in whole human blood; conditions: 37° C., 2 hours
Experimental: Fluorescein-labeled RNase was either conjugated to folate or left unmodified (control) following the same general procedure set forth in Example 19. The folate-conjugated and control samples were then added to freshly drawn whole human blood, incubated at 37° C. for 2 hours and then washed thoroughly and examined under the fluorescence microscope.

KB cells [10] = assay: Visualization of ribonuclease endocytosis by KB cells using a confocal microscope; type: cell-based, human; conditions: 60 minute incubation
Experimental: RNase labeled only with fluoroscein was used as a control. Following extensive dialysis against growth medium, the control and folate-labeled RNase samples were added to separate cultures of KB cells. After 60 minute incubation, the cells were thoroughly washed and examined for uptake. […] Furthermore, using the confocal's capability of focusing on a single horizontal plane in each cultured cell, it was readily evident that vesicles filled with the fluorescent-labeled, folate-bound ribonuclease were forming on all regions of the cell surface, pinching off via endocytosis into the interior, and entering the cytoplasm. The vesicles, measuring […] across, were easily large enough to accommodate large biomolecules such as proteins and DNA plasmids.

BHK cells = assay: Ribonuclease-riboflavin uptake by BHK cells; type: cell-based; conditions: 10 μg/ml, various times (FIG. 4)

T1 sequence (P15328 25-257): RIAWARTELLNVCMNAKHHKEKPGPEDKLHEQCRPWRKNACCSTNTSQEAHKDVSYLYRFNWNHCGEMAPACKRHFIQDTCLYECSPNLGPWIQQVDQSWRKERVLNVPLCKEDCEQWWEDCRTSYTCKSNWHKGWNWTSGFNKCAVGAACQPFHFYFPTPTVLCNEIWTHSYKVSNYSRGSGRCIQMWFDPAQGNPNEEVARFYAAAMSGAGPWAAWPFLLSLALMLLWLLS

- pKa (physchem; pKa): 2.5
- decrease in bound [^3 H]folic acid [1]: no ability to compete
Molecule: CC(=O)N(O)CCCCCNC(=O)CCC(=O)N(O)CCCCCNC(=O)CCC(=O)N(O)CCCCCNC(=O)[C@H](CCC(=O)O)NC(=O)c1ccc(NCc2cnc3nc(N)[nH]c(=O)c3n2)cc1 [DF-folate(α)]

- pKa (physchem; pKa): 4.5
- decrease in bound [^3 H]folic acid [1]: 50%
Molecule: CC(=O)N(O)CCCCCNC(=O)CCC(=O)N(O)CCCCCNC(=O)CCC(=O)N(O)CCCCCNC(=O)CC[C@H](NC(=O)c1ccc(NCc2cnc3nc(N)[nH]c(=O)c3n2)cc1)C(=O)O [DF-folate(γ)]

- Tumor-to-Non-target Ratio: Tumor/blood ([2]; mouse, in vivo, iv, 270 min): 48 ± 5
- Tumor-to-Non-target Ratio: Tumor/kidney ([2]; mouse, in vivo, iv, 270 min): 1.4 ± 0.5
- Tumor-to-Non-target Ratio: Tumor/liver ([2]; mouse, in vivo, iv, 270 min): 5.1 ± 0.5
- Tumor-to-Non-target Ratio: Tumor/muscle ([2]; mouse, in vivo, iv, 270 min): 82 ± 16
- Percentage of Injected Dose per Gram of Tissue: Kidney ([2]; mouse, in vivo, iv, 4.5 h): 1.79 ± 0.82 % of injected dose per gram
- Percentage of Injected Dose per Gram of Tissue: Liver ([2]; mouse, in vivo, iv, 4.5 h): 0.43 ± 0.03 % of injected dose per gram
- Percentage of Injected Dose per Gram of Tissue: Tumor ([2]; mouse, in vivo, iv, 4.5 h): 2.22 ± 0.36 % of injected dose per gram
Molecule: CC(=O)N([O-])CCCCCNC(=O)CCC(=O)N([O-])CCCCCNC(=O)CCC(=O)N([O-])CCCCCNC(=O)CCC(NC(=O)c1ccc(NCc2cnc3nc(N)[nH]c(=O)c3n2)cc1)C(=O)O.[67Ga+3] (stereo not drawn) [^67 Ga-DF-Folate]
- detection of tumor by gamma scintigraphy (human KB cells tumors): readily detected by gamma scintigraphy
- imaging of tumors in vivo with a gamma camera ([2]; 8 mm tumors): 8 mm tumors were easily imaged in vivo
- Percentage of Injected Dose per Gram of Tissue: Blood ([2]; mouse, in vivo, iv, 4.5 h): 0.046 ± 0.009 % of injected dose per gram
- Percentage of Injected Dose per Gram of Tissue: Heart ([2]; mouse, in vivo, iv, 4.5 h): 0.025 ± 0.005 % of injected dose per gram
- Percentage of Injected Dose per Gram of Tissue: Lungs ([2]; mouse, in vivo, iv, 4.5 h): 0.052 ± 0.010 % of injected dose per gram
- Percentage of Injected Dose per Gram of Tissue: Muscle ([2]; mouse, in vivo, iv, 4.5 h): 0.028 ± 0.005 % of injected dose per gram
- time to half maximal binding (KB cells [3]; 4° C.): ~ 3 min
- saturating level of cellular uptake, of the total radioactivity added (KB cells [3]; 4° C.): 20%
- initial radioactivity associated with cell surface (KB cells [3]; 4° C., end of 30 min incubation): ~ 18%
- maximal uptake, of the total conjugate added (KB cells [3]; 37° C.): 32%
- saturating level of cellular uptake, of the total radioactivity added (KB cells [3]; 37° C.): 35%
- initial cellular uptake retained (KB cells [3]; 100-fold molar excess of free folate): 0.5%
- decrease in uptake (KB cells [3]; equimolar unlabeled folic acid): 50%

- pKa (physchem; pKa1): 2.5
- pKa (physchem; pKa2): 4.5
Molecule: Nc1nc2ncc(CNc3ccc(C(=O)N[C@@H](CCC(=O)O)C(=O)O)cc3)nc2c(=O)[nH]1 [folic acid, Folic acid, reference compound]
- Km [4]: 1500 nM
- Ka [5]: 500 pM

Molecule: fluorescein labeled insulin: non-biotinylated fluorescein labeled insulin, control
- cellular internalization (fluorescent microscope) [6]: No evidence of internalization

B1: RNase-Folate: ^125 I bovine ribonuclease with 12-14 covalently bound folates per protein molecule (conjugate, UniProt P61823 27-150, looked up)
Ribonuclease pancreatic: KETAAAKFERQHMDSSTSAASSSNYCNQMMKSRNLTKDRCKPVNTFVHESLADVQAVCSQKNVACKNGQTNCYQSYSTMSITDCRETGSSKYPNCAYKTTQANKHIIVACEGNPYVPVHFDASV
modifications: 125I label; 12-14 folates
- reduction of uptake by competitive inhibition ([7]; 100-fold molar excess of unligated folate): 7 fold
- molecules per cell internalized ([7]; KB cells, after 30 minutes): 10^7 molecules per cell
- uptake by HeLa cells (human HeLa cells): corresponding results
- brain tissue uptake (delivery across the blood/brain barrier) [8]: brain tissue's preferential uptake of the folate-labeled protein

B2: folate-labeled RNase: Bovine ribonuclease labeled with fluorescein isothiocyanate and further labeled with folate (conjugate, UniProt P61823 27-150, looked up)
Ribonuclease pancreatic: B1 Ribonuclease pancreatic
modifications: fluorescein and folate conjugated
- cell fluorescence (fluorescence microscope) [9]: found to fluoresce
- internal fluorescence (confocal microscope) (KB cells [10]): Only the folate-labeled samples displayed any internal fluorescence

B3: RNase A-Rf (6): ^125 I ribonuclease derivatized with 6 riboflavins per protein (conjugate, UniProt P61823 27-150, looked up)
Ribonuclease pancreatic: B1 Ribonuclease pancreatic
modifications: 125I label; 6 riboflavins
notes: ^125 I ribonuclease derivatized with 6 riboflavins per protein
- uptake of ^125 I-ribonuclease by BHK cells (BHK cells): highest rate of uptake

— patent US5688488A, “Composition and method for tumor imaging” (priority 1995, dated 1997)
